Measured values as given in patent publication US20260193227A1, “THERAPEUTIC COMPOUNDS AND METHODS” (UNIVERSITY OF IOWA RESEARCH FOUNDATION, priority 2022, published 2026).
Residue numbers refer to the chain shown, from its start. Entries after “also recorded” stand apart in the source; their conditions may differ.

Tests used:
RAD52-ssDNA interaction = biological target: T1, RAD52-ssDNA interaction (Homo sapiens, UniProt P43351); test: FRET-based inhibition of the RAD52-ssDNA interaction; assay type: binding; settings: for effect on the RAD52-ssDNA complex / capacity to inhibit RAD52: FRET titration; for selectivity towards RAD52 over RPA: in vitro FRET-based assays
T1 construct: 6xHis; made in house
T1 sequence (P43351 1-418): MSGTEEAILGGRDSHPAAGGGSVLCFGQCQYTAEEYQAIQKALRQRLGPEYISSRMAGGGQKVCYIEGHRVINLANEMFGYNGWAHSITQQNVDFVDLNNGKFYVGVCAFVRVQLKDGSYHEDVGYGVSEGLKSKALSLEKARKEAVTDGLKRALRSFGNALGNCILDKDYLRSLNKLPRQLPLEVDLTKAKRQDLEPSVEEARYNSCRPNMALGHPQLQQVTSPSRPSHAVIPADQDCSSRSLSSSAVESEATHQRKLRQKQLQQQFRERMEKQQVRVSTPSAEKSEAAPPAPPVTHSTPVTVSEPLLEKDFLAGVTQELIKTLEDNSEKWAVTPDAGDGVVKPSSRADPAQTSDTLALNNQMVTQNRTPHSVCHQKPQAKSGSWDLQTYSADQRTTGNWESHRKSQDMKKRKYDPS
Procedure: (§1) Proteins: The 6×His-tagged human RAD52 proteins (wild type and mutants) and untagged human RPA were expressed and purified as previously described in (Hengel S R, eLife. 2016; 5; Grimme J M, et al., Nucleic Acids Res. 2010; 38(9):2917-30; and Henricksen L A, et al., The Journal of biological chemistry. 1994; 269(15):11121-32). RPA and RAD52 protein concentrations were determined by measuring absorbance at 280 nm using extinction coefficients of 88,830 M^−1 cm^−1 and 40,470 M^−1 cm^−1, respectively.
(§2) FRET-based DNA binding and inhibition assays: FRET-based that monitor the RAD52-ssDNA, RPA-ssDNA and RAD52-RPA-ssDNA binding were carried out as previously described (Hengel S R, eLife. 2016; 5; Grimme J M, et al., Nucleic Acids Res. 2010; 38(9):2917-30; and Grimme J M, Spies M. FRET-based assays to monitor DNA binding and annealing by Rad52 recombination mediator protein. Methods in molecular biology (Clifton, NJ). 2011; 745:463-83) using Cary Eclipse Spectrofluorimeter (Agilent) at 25° C., in 5 mm quartz cuvettes, and in buffer containing 30 mM Tris-Acetate (pH 7.5) and 1 mM DTT. Cy3 dye was excited at 530 nm and its emission was monitored at 565 nm. Emission of Cy5 acceptor fluorophore excited through the energy transfer from Cy3 donor is monitored at 660 nm simultaneously with emission of Cy3 dye. Both the excitation and the emission slits were set to 10 nm. All experiments were carried out using 1 nM (molecules) Cy3-dT30-Cy5 ssDNA. The optimal concentrations of the RAD52 (6 nM) and RPA (1 nM) proteins were selected by titrating the respective protein into 1 nM Cy3-dT30-Cy5 solution, and chosen based on the largest separation of the FRET values corresponding to the protein bound and free DNA.
(§3) The inhibition of the RAD52-ssDNA, RPA-ssDNA and RAD52-RPA-ssDNA complexes was evaluated by titrating each compound to the respective complex, measuring Cy3 and Cy5 fluorescence, and calculating FRET as previously described (Hengel, S. R., et al., eLife, 5).
(§4) Spectral properties of many compounds overlapped with the Cy3 and Cy5 fluorescence. To correct the calculated FRET values for the compound signal, the fluorogenic compounds were titrated into buffer and into solution of 1 nM Cy3-dT30-Cy5. For all tested compounds, the change in the signal in the Cy3 and Cy5 channels with and without Cy3/Cy5-labeled DNA present was the same. […] To account for the dye fluorescence, for each compound concentration, the apparent change in FRET of the ssDNA in the presence the compound was subtracted from the respective FRET signal of the RAD52-ssDNA, RPA-ssDNA or RAD52-ssDNA-RPA complex at the same inhibitor concentration. The IC50 values were calculated by fitting the corrected FRET data to the four-parameter dose response model using GraphPad Prism. All data are shown as average for at least three independent experiments ±standard deviation. The IC50 values are presented with their respective fitting error.

[1] = Solubility in cell culture medium; assay type: physicochemical; settings: plasma or biological fluid
[2] = biological target: T2, RAD52 IB mutant (K152A/R153A) (Homo sapiens, UniProt P43351, K152A/R153A); test: FRET-based inhibition of ssDNA binding, inner binding defective RAD52 mutant
T2 construct: 6xHis; made in house
T2 sequence (P43351 1-418 K152A/R153A): T1 sequence (P43351 1-418) with K152A, R153A
Procedure: as §1
as §2, with “Both the excitation and the emission slits were set to 10 nm. All experiments were carried out using 1 nM (molecules) Cy3-dT30-Cy5 ssDNA. The optimal concentrations of the RAD52 (6 nM) and RPA (1 nM) proteins were selected by titrating the respective protein into 1 nM Cy3-dT30-Cy5 solution, and chosen based on the largest separation of the FRET values corresponding to the protein bound and free DNA.” left out
Spectral properties of many compounds overlapped with the Cy3 and Cy5 fluorescence. […]

[3] = system: RAD52 OB mutant (K102A/K103A/K169A/R173A); test: FRET-based inhibition of ssDNA binding, outer binding defective RAD52 mutant; parameters: species or system human; settings: for fold lower IC50 (increased efficiency) against OB mutant compared to IB mutant: Z56: wild type and IB mutant within the fitting error
Procedure: as §1, §2, §3
as §4, with “All data are shown as average for at least three independent experiments ±standard deviation. The IC50 values are presented with their respective fitting error.” left out

Row | Structure (SMILES) | effect on the RAD52-ssDNA complex / capacity to inhibit RAD52 (RAD52-ssDNA interaction) | selectivity towards RAD52 over RPA (RAD52-ssDNA interaction; listed as Z99) | solubility [1] | inhibition of ssDNA binding to IB mutant RAD52 [2] | inhibition of ssDNA binding to OB mutant RAD52 [3] | fold lower IC50 (increased efficiency) against OB mutant compared to IB mutant [3] | selectivity towards RAD52 over RPA (RAD52-ssDNA interaction; listed as Z56)
1 | O=C(Cn1cccc([N+](=O)[O-])c1=O)c1c[nH]c2ccccc12 [Example 1] | FRET decrease | more promiscuous also inhibiting RPA; also recorded: more promiscuous, inhibited RPA in vitro | > 100 µM | able to inhibit | able to inhibit | 6 fold | –
2 | COc1ccccc1NS(=O)(=O)c1cc(C(=O)O)ccc1C [Example 8] | FRET decrease | – | – | able to inhibit | able to inhibit | 6 fold | specific to RAD52 over RPA in vitro; also recorded: shows selectivity towards RAD52 over RPA
